Laboratory results as given in patent publication US20060211073A1, “Assay for B-Raf activity based on intrinsic MEK ATPase activity” (priority 2005, published 2006).

Target: T1, phosphoMEK (activated MEK-1) (Homo sapiens, UniProt Q02750)
T1 construct: purchased Upstate (Waltham, Mass.) #14-429, lot #26232U
Experiment: ATPase activity of commercially acquired phosphoMEK in the absence of B-Raf
Type: biochemical
Settings: data not shown

T1 sequence (Q02750 whole entry): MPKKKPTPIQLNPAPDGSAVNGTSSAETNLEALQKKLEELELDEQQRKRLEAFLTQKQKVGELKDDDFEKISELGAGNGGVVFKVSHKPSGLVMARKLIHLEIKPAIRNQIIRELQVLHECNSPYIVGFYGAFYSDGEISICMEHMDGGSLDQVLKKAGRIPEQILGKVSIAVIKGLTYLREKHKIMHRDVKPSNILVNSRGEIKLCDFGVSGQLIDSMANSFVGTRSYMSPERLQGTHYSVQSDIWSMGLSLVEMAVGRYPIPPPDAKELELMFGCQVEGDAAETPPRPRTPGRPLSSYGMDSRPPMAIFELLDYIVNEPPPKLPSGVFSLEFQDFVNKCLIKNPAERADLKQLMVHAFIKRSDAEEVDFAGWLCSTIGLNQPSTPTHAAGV

## CN(C)CCOc1ccc(-c2nc(-c3ccncc3)c(-c3ccc4c(c3)CC/C4=N\O)[nH]2)cc1 [SB-590885]
  IC50: > 10 µM
